Reference: PubChem BioAssay AID1963971 (Molecular Pharmacology Branch, DTP, NCI, 2024)

Test system: 953936-095-R-J2-PDC spheroids with HUVEC/MSC, viability
Assay: Anticancer human tumor 953936-095-R-J2-PDC patient-derived cervical squamous cell carcinoma cell line growth inhibition [PI3K]
Conditions: for IC50: curve of first compound; for viability, T/C: stronger effect = lower value
How it was run: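 Three cell types, namely tumor cells, endothelial cells and mesenchymal stem cells, formed each spheroid. Combinations with four PI3K inhibitors were screened at clinically achievable concentrations decreasing by half-log, and spheroid viability was recorded.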

[1] = second compound 0.0316 µM, first compound 0.0316 µM
[2] = second compound 0.0316 µM, first compound 0.1 µM
[3] = second compound 0.0316 µM, first compound 0.316 µM
[4] = second compound 0.0316 µM, first compound 1 µM
[5] = second compound 0.0316 µM, first compound 3.16 µM
[6] = second compound 0.0316 µM, first compound 10 µM
[7] = second compound 0.1 µM, first compound 0.0316 µM
[8] = second compound 0.1 µM, first compound 0.1 µM
[9] = second compound 0.1 µM, first compound 0.316 µM
[10] = second compound 0.1 µM, first compound 1 µM
[11] = second compound 0.1 µM, first compound 3.16 µM
[12] = second compound 0.1 µM, first compound 10 µM
[13] = second compound 0.316 µM, first compound 0.0316 µM
[14] = second compound 0.316 µM, first compound 0.1 µM
[15] = second compound 0.316 µM, first compound 0.316 µM
[16] = second compound 0.316 µM, first compound 1 µM
[17] = second compound 0.316 µM, first compound 3.16 µM
[18] = second compound 0.316 µM, first compound 10 µM
[19] = second compound 1 µM, first compound 0.0316 µM
[20] = second compound 1 µM, first compound 0.1 µM
[21] = second compound 1 µM, first compound 0.316 µM
[22] = second compound 1 µM, first compound 1 µM
[23] = second compound 1 µM, first compound 3.16 µM
[24] = second compound 1 µM, first compound 10 µM
[25] = second compound 3.16 µM, first compound 0.0316 µM
[26] = second compound 3.16 µM, first compound 0.1 µM
[27] = second compound 3.16 µM, first compound 0.316 µM
[28] = second compound 3.16 µM, first compound 1 µM
[29] = second compound 3.16 µM, first compound 3.16 µM
[30] = second compound 3.16 µM, first compound 10 µM
[31] = second compound 10 µM, first compound 0.0316 µM
[32] = second compound 10 µM, first compound 0.1 µM
[33] = second compound 10 µM, first compound 0.316 µM
[34] = second compound 10 µM, first compound 1 µM
[35] = second compound 10 µM, first compound 3.16 µM
[36] = second compound 10 µM, first compound 10 µM
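Note: spheroids exposed to compounds for seven days before read-out.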

Question: Which results are given for `C#Cc1c(F)ccc2cc(O)cc(-c3ncc4c(N5CC6CCC(C5)N6)nc(OCC56CCCN5CC(F)C6)nc4c3F)c12` (centres undefined) + Cc1nc(NC(=O)N2CCCC2C(N)=O)sc1-c1ccnc(C(C)(C)C(F)(F)F)c1?
Answer: IC50 (second compound 0.0316 µM): > 10000 nM; IC50 (second compound 0.1 µM): > 10000 nM; IC50 (second compound 0.316 µM): 1350 nM; IC50 (second compound 1 µM): < 31.6 nM; IC50 (second compound 3.16 µM): < 31.6 nM; IC50 (second compound 10 µM): < 31.6 nM; viability, T/C [1]: 97.6%; viability, T/C [2]: 102%; viability, T/C [3]: 92.3%; viability, T/C [4]: 82.2%; viability, T/C [5]: 71.3%; viability, T/C [6]: 67.9%; viability, T/C [7]: 79.7%; viability, T/C [8]: 81.7%; viability, T/C [9]: 92.8%; viability, T/C [10]: 74.6%; viability, T/C [11]: 61.9%; viability, T/C [12]: 51.9%; viability, T/C [13]: 64.7%; viability, T/C [14]: 59.1%; viability, T/C [15]: 57%; viability, T/C [16]: 49.4%; viability, T/C [17]: 48.9%; viability, T/C [18]: 38.2%; viability, T/C [19]: 43.8%; viability, T/C [20]: 42.3%; viability, T/C [21]: 39%; viability, T/C [22]: 34.7%; viability, T/C [23]: 28.3%; viability, T/C [24]: 21.6%; viability, T/C [25]: 25.2%; viability, T/C [26]: 23.8%; viability, T/C [27]: 22.5%; viability, T/C [28]: 17.2%; viability, T/C [29]: 12.3%; viability, T/C [30]: 10.1%; viability, T/C [31]: 10.3%; viability, T/C [32]: 10%; viability, T/C [33]: 8.35%; viability, T/C [34]: 7.39%; viability, T/C [35]: 6.74%; viability, T/C [36]: 4.92%

Question: `CC(Cn1ccc(-c2ccc(C#N)c(Cl)c2)n1)NC(=O)c1cc(C(C)O)[nH]n1` (centres undefined) + Cc1nc(NC(=O)N2CCCC2C(N)=O)sc1-c1ccnc(C(C)(C)C(F)(F)F)c1 was tested. Which IC50 (second compound 0.0316 µM) did it give?
Answer: > 10000 nM

Question: And the IC50 (second compound 0.1 µM)?
Answer: > 10000 nM

Question: What about the IC50 (second compound 0.316 µM) of the same compound?
Answer: > 10000 nM

Question: And the IC50 (second compound 1 µM)?
Answer: < 31.6 nM

Question: And the IC50 (second compound 3.16 µM)?
Answer: < 31.6 nM

Question: And the IC50 (second compound 10 µM)?
Answer: < 31.6 nM

Question: And the viability, T/C [1]?
Answer: 83.7%

Question: What about the viability, T/C [2] of the same compound?
Answer: 95.2%

Question: And the viability, T/C [3]?
Answer: 86.4%

Question: What about the viability, T/C [4] of the same compound?
Answer: 96.9%

Question: And the viability, T/C [5]?
Answer: 89.8%

Question: And the viability, T/C [6]?
Answer: 107%

Question: What about the viability, T/C [7] of the same compound?
Answer: 84.8%

Question: And the viability, T/C [8]?
Answer: 77.9%

Question: And the viability, T/C [9]?
Answer: 78.2%

Question: And the viability, T/C [10]?
Answer: 81.2%

Question: And the viability, T/C [11]?
Answer: 82.4%

Question: What about the viability, T/C [12] of the same compound?
Answer: 79.5%

Question: What about the viability, T/C [13] of the same compound?
Answer: 69.4%

Question: And the viability, T/C [14]?
Answer: 65.3%

Question: And the viability, T/C [15]?
Answer: 74.1%

Question: And the viability, T/C [16]?
Answer: 61%

Question: What about the viability, T/C [17] of the same compound?
Answer: 61.7%

Question: And the viability, T/C [18]?
Answer: 66.5%

Question: And the viability, T/C [19]?
Answer: 43.9%

Question: And the viability, T/C [20]?
Answer: 41.7%

Question: What about the viability, T/C [21] of the same compound?
Answer: 43.5%

Question: And the viability, T/C [22]?
Answer: 45.9%

Question: What about the viability, T/C [23] of the same compound?
Answer: 44.1%

Question: What about the viability, T/C [24] of the same compound?
Answer: 44.6%

Question: And the viability, T/C [25]?
Answer: 24.7%

Question: What about the viability, T/C [26] of the same compound?
Answer: 26.9%

Question: What about the viability, T/C [27] of the same compound?
Answer: 27.6%

Question: What about the viability, T/C [28] of the same compound?
Answer: 25.2%

Question: What about the viability, T/C [29] of the same compound?
Answer: 26.9%

Question: And the viability, T/C [30]?
Answer: 28.4%

Question: What about the viability, T/C [31] of the same compound?
Answer: 10.3%

Question: What about the viability, T/C [32] of the same compound?
Answer: 10.8%

Question: What about the viability, T/C [33] of the same compound?
Answer: 10.9%

Question: And the viability, T/C [34]?
Answer: 11.1%

Question: And the viability, T/C [35]?
Answer: 10.8%

Question: What about the viability, T/C [36] of the same compound?
Answer: 13%
